Consider one molecule from patent publication US7189691B2, “Methods and compositions for treating leukemia” (The Administrators of the Tulane Educational Fund, priority 2004, dated 2007).

For one assay, the system named is Raji lymphoma cell line. Put plainly: Proliferation test. Type of assay: cell-based. The settings on record: data not shown.
In the next assay the target is T1, MPc3 binding to AF9 (Homo sapiens, UniProt P42568).
T1 construct: made in house; host or cells: GST-MPc3 from E. coli; AF9 by coupled in vitro transcription/translation (Promega)
T1 sequence (P42568 211-568): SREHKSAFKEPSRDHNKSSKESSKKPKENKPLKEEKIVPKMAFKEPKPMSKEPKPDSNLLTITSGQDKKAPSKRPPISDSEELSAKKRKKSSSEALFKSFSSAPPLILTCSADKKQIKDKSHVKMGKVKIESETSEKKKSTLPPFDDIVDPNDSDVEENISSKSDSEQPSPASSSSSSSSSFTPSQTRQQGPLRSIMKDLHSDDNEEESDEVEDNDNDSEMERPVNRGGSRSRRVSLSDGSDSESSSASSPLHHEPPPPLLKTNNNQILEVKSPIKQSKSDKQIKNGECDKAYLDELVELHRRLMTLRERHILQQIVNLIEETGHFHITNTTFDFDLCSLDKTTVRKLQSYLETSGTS
Put plainly: GST pull-down assay, GST-MPc3(202-362) and biotinylated AF9. More on the design: species or system murine. The conditions noted are these: 25 μg/ml. As to the method: (§1) To determine if the synthetic peptide could disrupt the AF4-AF9 interaction in vitro, and to determine if the peptide disrupted other binding events with AF9, the following assay was performed. In additional to AF4, the carboxy-terminus of AF9 binds at least two other proteins, the Polycomb protein MPc3 and mBCoR, the mouse homolog of the human BCL-6 corepressor protein (Srinivasan 2003 and Hemenway 2001, both cited above). Using a yeast three hybrid assay similar to that described in Example 1, it was previously shown that mBCoR and FMR2 (an AF4 homolog) can simultaneously bind AF9. […] The sequences of human AF4 and AF9 and murine MPc3 and BCoR can be found in the NCBI database under Accession Nos. P51825, P42568, Q9QXV1, and AAN85318, respectively, incorporated by reference herein.
(§2) Recombinant proteins consisting of glutathione-S-transferase (GST) fused to either (a) amino acids 749–775 of human AF4 SEQ ID NO: 107, (b) amino acids 202–362 of MPc3 SEQ ID NO: 108 or (c) amino acids 925–1759 of mBCoR SEQ ID NO: 109 were isolated from E. coli. These fusion proteins were immobilized on 50 μl glutathione agarose matrix. […]
(§3) After extensive washing with TBST, proteins were resolved by SDS-PAGE and transferred to nitrocellulose. […] Alkaline phosphatase activity was measured by determining the optical density of the samples at 405 nm with a plate spectrophotometer. […]

The test system of a further assay is B1 cells. The experiment in a line: Annexin-V/PI binding assay (flow cytometry). Type of assay: cell-based. The settings on record: treated for 24 h. As to the method:
To test the possibility that growth inhibition of t(4;11) leukemia cells exposed to PFWT is the result of apoptotic cell death, annexin-V labeling of the cell membrane of the leukemic cells examined in Example 5 was used to assess apoptosis as follows (Koopman, G., et al., Blood 1994 84: 1415–1420.). Annexin V binding assays were carried out using a Vibrant™ apoptosis kit (Molecular Probes). […] For annexin V-propidium iodide (PI) staining, cells were harvested, washed once with PBS and resuspended in 100 μl annexin binding buffer. 5 μl annexin V conjugated to Alexa Fluor 488 and 2 μl of 100 μg/ml PI were added to the cell suspension and incubated at room temperature for 15 minutes. The cells were then washed once in annexin binding buffer and resuspended in 400 μl annexin binding buffer. These samples were then analyzed by flow cytometry using Coulter benchtop flow cytometer. The cells were excited by a 488 nm wavelength laser beam and the emission was measured using a 530 nm filter for annexin V and a 575 nm filter for PI.
On the technique in general: Flow cytometry measures light scatter and fluorescence of single cells or particles in a stream.

Another assay has as its target T2, mBCoR binding to AF9 (Homo sapiens, UniProt P42568).
T2 construct: made in house; host or cells: GST-mBCoR from E. coli; AF9 by coupled in vitro transcription/translation (Promega)
T2 sequence (P42568 211-568): T1 sequence (P42568 211-568)
The experiment in a line: GST pull-down assay, GST-mBCoR(925-1759) and biotinylated AF9. The conditions noted are these: 25 μg/ml. Also on record: species or system murine. Here is the method:
as §1, §2, §3

In assay [1] the test system is RS4;11 leukemia cell line. The experiment in a line: MTT viability assay and growth curve (Trypan Blue exclusion). The settings on record: 100 μg/ml, 72 h. It is filed as cell-based. As to the method: (§4) All cell lines were maintained in RPMI 1640+10% FCS. 100 μl aliquots of cell suspension (5×10^5 cells/ml) were cultured in flat-bottomed 96 well plates in the presence of different concentrations of peptides. After 72 h incubation at 37° C. in humidified air containing 5% CO2, viable cell number was determined by MTT assay as follows: 10 μl of 3-[4,5-dimethylthiazol-2-yl]-2,5-diphenyl tetrazolium bromide (MTT) (5 mg/ml concentration) (Sigma) was added to each well and incubated further for 6 h. Formazan crystals that are formed during incubation were dissolved in 100 μl of acidified isopropanol. The optical density at 550 nm (which is linearly related to the number of viable cells) was measured using a plate spectrophotometer. Growth characteristics of the leukemia cell lines were also determined for cells by Trypan Blue exclusion.
Background: Tetrazolium assays rely on reduction of a dye to a coloured formazan, in cell work by metabolically active cells.

The subject of a further assay is B1 leukemia cell line. Put plainly: MTT viability assay. Type of assay: cell-based. The conditions noted are these: 72 h, differing concentrations. Here is the method:
as §4

Assay [2] deals with MOLT-4 T-cell leukemia line. Put plainly: MTT viability assay. It is filed as cell-based. The conditions noted are these: 72 h, up to 200 μg/ml. Here is the method: as §4
Assay [3] has as its system Reh B-precursor leukemia cell line. Put plainly: MTT viability assay. It is filed as cell-based. The settings on record: 72 h. Here is the method:
as §4

Assay [4] relates to MV4-11 leukemia cell line. Put plainly: MTT viability assay. Type of assay: cell-based. The settings on record: 72 h, differing concentrations. Here is the method:
as §4

In another assay the test system is THP-1 leukemia cell line. The experiment in a line: MTT viability assay. Type of assay: cell-based. The settings on record: 72 h, varying concentrations. As to the method:
as §4

“Also recorded” adds a separate entry of the source.

As to `CC[C@H](C)[C@H](NC(=O)[C@H](CCCCN)NC(=O)[C@@H](NC(=O)[C@H](Cc1c[nH]c2ccccc12)NC(=O)[C@H](CC(C)C)NC(=O)[C@H](CCCCN)NC(=O)[C@H](CCCCN)NC(=O)[C@H](Cc1c[nH]c2ccccc12)NC(=O)[C@H](CCCCN)NC(=O)[C@H](CCSC)NC(=O)[C@H](CCCNC(=N)N)NC(=O)[C@H](CCCNC(=N)N)NC(=O)[C@H](CC(N)=O)NC(=O)[C@H](CCC(N)=O)NC(=O)[C@H](Cc1ccccc1)NC(=O)[C@H](Cc1c[nH]c2ccccc12)NC(=O)[C@H](CCCCN)NC(=O)[C@@H](NC(=O)[C@H](CCC(N)=O)NC(=O)[C@@H](N)CCCNC(=N)N)[C@@H](C)CC)C(C)C)C(=O)N[C@@H](CC(=O)O)C(=O)N[C@@H](CC(C)C)C(=O)N[C@@H](CC(=O)O)C(=O)N[C@@H](CC(C)C)C(=O)N[C@@H](CC(C)C)C(=O)N[C@@H](CO)C(=O)N[C@@H](CCCNC(=N)N)C(=O)N[C@H](C(=O)N1CCC[C@H]1C(=O)O)C(C)C` [PFWT], the proliferation entry in the assay with Raji lymphoma cell line is “not affect the proliferation”. For the same molecule, the “displacement of MPc3 from AF9” value at MPc3 binding to AF9 is given as “not displaced”. In the assay with B1 cells, the “cells in early stages of apoptosis (Annexin-V binding, exclusion of PI)” value is 45%. Moreover, the “cells in later stages of apoptosis (positive for Annexin-V and PI)” value with B1 cells came to 35%. Also, the “displacement of mBCoR from AF9” value at mBCoR binding to AF9 is listed as “not displaced”. Besides, the proliferation / viability entry in assay [1] is listed as “completely inhibits proliferation”. For the same molecule, the cell viability result in the assay on B1 leukemia cell line was “diminished; also recorded: inhibits”; in [2] it was “not affected”; in [3] it was “inhibited”; in assay [4], “diminished; also recorded: inhibits”; in the assay with THP-1 leukemia cell line it was “inhibited to a much lesser extent; also recorded: not significantly inhibited”.
